# Source: US20070172957A1, “Methods of identifying anti-inflammatory macrolides” (TAISHO PHARMACEUTICAL CO., LTD., priority 2004, published 2007)
# Test system: genes predictive for the anti-inflammatory macrolide effect
# Test: Genes statistically predictive of Clari response: differentially expressed with Clari but not the inactive macrolides MAA or Josa (Appendix E)
# Assay type: cell-based
# Source text: In the case of the above-mentioned (i) related to arachidonic acid biosynthesis, specifically, methods of the embodiment involve assaying whether a test macrolide alters biosynthesis of arachidonic acid, alters the expression or activities of enzymes involved in the biosynthesis or activation of arachidonic acid (e.g., arachidonic acid CoA synthetase, delta-6 desaturase, fatty acid elongase, and delta-5 desaturase, AA-related genes in Tables 2 and 3), or alters the expression of genes identified as predictive for the anti-inflammatory macrolide effect (Appendix E). Assays in which arachidonic acid or gene expression or enzymatic activity is detected can be carried out after contacting a cell with a test macrolide. Any cell line that secretes prostaglandin or produces arachidonic acid can be used. Epithelial and macrophages lines (e.g., A549 or THP-1) are suitable for this purpose; other cell lines can be identified by carrying out assays such as those described in the specific Examples, below. Alternatively, screening assays can be carried out after adding a test macrolide to an in vitro cell system (e.g., a cellular extract or liver microsome preparation) or an in vitro enzyme assay system.
compound,measurement,setting,value
CO[C@@H]1[C@@H](O[C@@H]2O[C@H](C)[C@@H](O[C@H]3C[C@@](C)(O)[C@@H](OC(=O)CC(C)C)[C@H](C)O3)[C@H](N(C)C)[C@H]2O)[C@@H](CC=O)C[C@@H](C)[C@@H](O)/C=C/C=C/C[C@@H](C)OC(=O)C[C@H]1OC(C)=O [josamycin],"group mean, gene SERPING1","SpotID 46579, MAA and Josa vs. Clari",1.03
same,"group mean, gene C12orf8","SpotID 46586, MAA and Josa vs. Clari",0.98
same,"mean group, FLJ20699","SpotID 46633, pooled group mean",1.00
same,"mean group, ARHGAP1","SpotID 46648, pooled group mean",1.07
same,"group mean, gene KIAA1172","SpotID 46679, MAA and Josa vs. Clari",1.04
same,"mean group, KIAA1172","SpotID 46679, pooled group mean",1.04
same,"group mean, gene MKNK2","SpotID 46825, MAA and Josa vs. Clari",0.94
same,"mean group, MKNK2","SpotID 46825, pooled group mean",0.94
same,"group mean, gene PRKAR1A","SpotID 46838, MAA and Josa vs. Clari",1.04
same,"group mean, gene ARHGDIA","SpotID 46843, MAA and Josa vs. Clari",1.08
same,"mean group, ARHGDIA","SpotID 46843, pooled group mean",1.08
same,"group mean, gene HEXA","SpotID 46882, MAA and Josa vs. Clari",0.97
same,"group mean, gene CDIPT","SpotID 46896, MAA and Josa vs. Clari",0.91
same,"mean group, CDIPT","SpotID 46896, pooled group mean",0.91
same,"mean group, PACE","SpotID 46923, pooled group mean",1.00
same,"group mean, gene METAP2","SpotID 46935, MAA and Josa vs. Clari",1.05
same,"mean group, METAP2","SpotID 46935, pooled group mean",1.05
same,"group mean, gene HSPBP1","SpotID 46979, MAA and Josa vs. Clari",1.02
same,"mean group, EREG","SpotID 46988, pooled group mean",1.11
same,"group mean, gene TFPI2","SpotID 46991, MAA and Josa vs. Clari",1.00
same,"group mean, gene C2orf3","SpotID 47034, MAA and Josa vs. Clari",1.01
same,"mean group, C2orf3","SpotID 47034, pooled group mean",1.01
same,"group mean, gene NFRKB","SpotID 47056, MAA and Josa vs. Clari",0.96
same,"group mean, gene GOLGB1","SpotID 47111, MAA and Josa vs. Clari",1.01
same,"group mean, gene MCM2","SpotID 47123, MAA and Josa vs. Clari",0.97
same,"group mean, gene KIAA0251","SpotID 47131, MAA and Josa vs. Clari",0.92
same,"group mean, gene ARHGAP1","SpotID 47192, MAA and Josa vs. Clari",1.10
same,"group mean, gene ITGB5","SpotID 47212, MAA and Josa vs. Clari",0.94
same,"mean group, NUBP1","SpotID 47241, pooled group mean",1.04
same,"group mean, gene AKR1A1","SpotID 47249, MAA and Josa vs. Clari",0.93
same,"group mean, gene HKE4","SpotID 47251, MAA and Josa vs. Clari",0.94
same,"mean group, EPOR","SpotID 47314, pooled group mean",0.99
same,"group mean, gene ADAM11","SpotID 47352, MAA and Josa vs. Clari",0.93
same,"mean group, ADAM11","SpotID 47352, pooled group mean",0.93
same,"group mean, gene ERF","SpotID 47354, MAA and Josa vs. Clari",1.15
same,"mean group, P4HB","SpotID 47366, pooled group mean",1.05
same,"group mean, gene MTHFD1","SpotID 47406, MAA and Josa vs. Clari",1.12
same,"mean group, CETN2","SpotID 47415, pooled group mean",1.06
same,"group mean, gene SNK","SpotID 47418, MAA and Josa vs. Clari",1.03
same,"mean group, SNK","SpotID 47418, pooled group mean",1.03
same,"mean group, GCS1","SpotID 47432, pooled group mean",0.90
same,"group mean, gene DCTN1","SpotID 47439, MAA and Josa vs. Clari",1.04
same,"mean group, DCTN1","SpotID 47439, pooled group mean",1.04
same,"group mean, gene RANBP1","SpotID 47446, MAA and Josa vs. Clari",1.04
same,"mean group, RANBP1","SpotID 47446, pooled group mean",1.04
same,"mean group, MSH3","SpotID 47504, pooled group mean",1.09
same,"mean group, SERPINA1","SpotID 47522, pooled group mean",1.04
same,"group mean, gene PTK2B","SpotID 47524, MAA and Josa vs. Clari",1.34
same,"group mean, gene ARHGDIA","SpotID 47535, MAA and Josa vs. Clari",1.08
same,"group mean, gene TRAP1","SpotID 47622, MAA and Josa vs. Clari",1.09
same,"mean group, TRAP1","SpotID 47622, pooled group mean",1.09
same,"group mean, gene HSPA9B","SpotID 47661, MAA and Josa vs. Clari",1.10
same,"mean group, NR4A2","SpotID 47679, pooled group mean",0.95
same,"group mean, gene HSPA9B","SpotID 47694, MAA and Josa vs. Clari",1.09
same,"mean group, HSPA9B","SpotID 47694, pooled group mean",1.09
same,"group mean, gene MAD4","SpotID 47705, MAA and Josa vs. Clari",0.97
same,"group mean, gene NBS1","SpotID 47754, MAA and Josa vs. Clari",1.18
same,"mean group, NBS1","SpotID 47754, pooled group mean",1.18
same,"group mean, gene KIAA1922","SpotID 47755, MAA and Josa vs. Clari",1.14
same,"group mean, gene POLA","SpotID 47776, MAA and Josa vs. Clari",1.02
same,"mean group, POLA","SpotID 47776, pooled group mean",1.02
same,"group mean, gene BET3","SpotID 47793, MAA and Josa vs. Clari",0.95
same,"group mean, gene GOT1","SpotID 47802, MAA and Josa vs. Clari",1.02
same,"mean group, GOT1","SpotID 47802, pooled group mean",1.02
same,"group mean, gene ENTPD6","SpotID 47811, MAA and Josa vs. Clari",0.93
same,"mean group, ENTPD6","SpotID 47811, pooled group mean",0.93
same,"mean group, SSI-1","SpotID 47846, pooled group mean",1.03
same,"group mean, gene PRLR","SpotID 47850, MAA and Josa vs. Clari",1.09
same,"mean group, PRLR","SpotID 47850, pooled group mean",1.09
same,"group mean, gene ERF","SpotID 47898, MAA and Josa vs. Clari",1.14
same,"group mean, gene YWHAE","SpotID 47911, MAA and Josa vs. Clari",1.04
same,"group mean, gene CCNE2","SpotID 47926, MAA and Josa vs. Clari",0.98
same,"group mean, gene P4HA1","SpotID 47935, MAA and Josa vs. Clari",0.95
same,"mean group, P4HA1","SpotID 47935, pooled group mean",0.95
same,"group mean, gene CTSB","SpotID 47937, MAA and Josa vs. Clari",0.98
same,"group mean, gene INPP5E","SpotID 47939, MAA and Josa vs. Clari",0.99
same,"group mean, gene SF3B3","SpotID 47947, MAA and Josa vs. Clari",1.10
